These results are taken from patent publication US12527835B2, “Brevican-binding peptides for brain tumor imaging” (The Brigham and Women's Hospital, Inc., priority 2018, dated 2026).

Where a SMILES comes first, the peptide text is derived from it. [ ]: non-standard residue; d: D form.

This assay has as its system BT188 glioma stem cells. Kind of assay: Peptide uptake in BT188 (BΔg-high) versus BT145 (BΔg-low) glioma stem cells, fluorescence imaging. The assay is classed as cell-based, human. The following applies: fluorescein-labeled peptides, 5 μM. An excerpt:
FIGS. 3A-I. Peptide characterization for BΔg specificity in glioma stem cells. (a) Table summary listing the properties of 7 peptides (composed of 8 D-amino acid residues, SEQ ID NOs:3-9, in order of appearance) that were isolated from the OBOC library screen. MW=molecular weight; KD=Kyte-Doolittle scale for amino acid hydropathy (positive scores indicate […]) (Kyte and Doolittle, J. Mol. Biol. 157, 105-132 (1982)). (b) Chemical structure showing the linkage between the peptide and FITC. (c) Western blot analysis showing the level of BΔg and Bcan in human embryo kidney (HEK) cells, and Bcan-overexpressing HEK cells (HEK-Bcan). […] Each group was normalized to a no-blocking (vehicle) control. Statistics were performed using multiple t-tests, and significance was measured in comparison to each vehicle control (p<0.0001). (e) Uptake of fluorescein-labeled BTP-2, 7, 8, 9, and 10 (at 5 μM conc.) in BT188 (BΔg-high) or BT145 (BΔg-low) glioma stem cells (GSCs). Western blot analysis on the top right confirms the BΔg expression level. […] Statistics were performed using the two-way ANOVA and Tukey's Multiple Comparison test. (f) Chemical structure showing the linkage between the peptide and Cy5.5 dye. (g) Western blot analysis showing the expression of BΔg in GBM-6 cells, with negligible BΔg level in astrocytes or neural progenitor cells (NPC). (h) Graph showing the cell uptake ranking of the top 3 peptide candidates, BTP-7, 8 and 9 in GBM-6 cells as determined by flow cytometry analysis with s.d. error bars (5 μM conc.; nevents=20,000 cells; nexperiment=5). Each group is normalized to the control scramble peptide (Scr-8). Statistics were performed using the one-way ANOVA and Tukey's Multiple Comparison test (significance were measured in comparison to the Scr-8 control). (i) Bar graph showing the uptake of BTP-7, 8 and 9 in GBM-6 cells and NPC with 95% confidence interval error bars (1 μM conc.; nevents=20,000 cells). Statistics were performed using the two-way ANOVA and Sidak's Multiple Comparison test.

As for `CC[C@@H](C)[C@@H](NC(=O)[C@H](N)[C@H](C)O)C(=O)N[C@H](CCCNC(=N)N)C(=O)N[C@H](CCCCN)C(=O)N[C@H](CC(C)C)C(=O)N[C@@H](C(=O)N[C@H](CCCNC(=N)N)C(=O)N[C@H](Cc1c[nH]cn1)C(N)=O)C(C)C` [BTP-8] (H-[dT][dI][dR][dK][dL][dV][dR][dH]-NH2; N-terminus and C-terminus assumed), the “size of the difference in uptake between BT188 and BT145 GSCs (ranking)” value is “largest and most significant difference”; the “uptake in BT188 GSCs compared with BT145 GSCs” value is given as “greater uptake”.
